The record followed here is ChEMBL document CHEMBL1800008, “Design, synthesis and reactivity of C2-symmetric azobenzene-based amino acid-bis(propargyl sulfones)” (Bioorg Med Chem Lett, 2010).

SMILES strings stand for the structures. Calls of active or inactive are those of the source. No cut-off for these calls is given here.

Common to all, as to format: nucleic-acid assay
Assay [1] has as its system Nucleic Acid. The assay can be described thus: Induction of Escherichia coli supercoiled pBR322 DNA cleavage at 0.02 mM after 48 hrs by densitometric analysis.
In assay [2] the test system is Nucleic Acid. The assay can be described thus: Induction of Escherichia coli supercoiled pBR322 DNA cleavage at 0.02 mM after 48 hrs by gel electrophoresis analysis.
For assay [3], the system named is Nucleic Acid. The assay can be described thus: Binding affinity to calf thymus DNA by absorption titration analysis. The note with it: Bos taurus.

For `O=C(COc1ccccc1/N=N/c1ccccc1OCC(=O)N[C@@H](Cc1ccccc1)C(=O)OCC#CCS(=O)(=O)c1ccccc1)N[C@@H](Cc1ccccc1)C(=O)OCC#CCS(=O)(=O)c1ccccc1`, the outcome in the assay on Nucleic Acid [1] was Active. This compound also had an Activity with Nucleic Acid [2] of 10%. The K in the assay with Nucleic Acid [3] was 9 ×10⁴ /M.
For `CC(C)[C@H](NC(=O)COc1ccccc1/N=N/c1ccccc1OCC(=O)N[C@H](C(=O)OCC#CCS(=O)(=O)c1ccccc1)C(C)C)C(=O)OCC#CCS(=O)(=O)c1ccccc1` the same measures were “Active”, 20% and 11 ×10⁴ /M.
Consider `O=S(=O)(CC#CCOc1ccccc1/N=N/c1ccccc1OCC#CCS(=O)(=O)c1ccccc1)c1ccccc1`, for which the Activity with Nucleic Acid [2] is 25%.
